Values of other authors in paper PMC4387854 (Bioorganic & medicinal chemistry, 2013).
Marks after values point to notes of the source that are not given here.

Assays:
[1] = preclinical evaluation in rats and dogs or in human trials
[2] = female rats with MNU-initiated mammary tumors; ref Grubbs et al. 8

## CC(=C/C=C/C(C)=C/C(=O)O)/C=C1\CCCc2ccccc21 [9cUAB30, (2E,4E,6Z,8Z)-8-(3’,4’-Dihydro-1’(2H)-naphthalen-1’-ylidene)-3,7-dimethyl-2,3,6-octatrienoinic acid]
[1]
  Increase in serum TG: no increase
[2]
  Serum Triglyceride Increase (%): 65% ^d
